Measurements published in patent US20240246955A1, “TROPOMYOSIN RECEPTOR KINASE (TRK) DEGRADATION COMPOUNDS AND METHODS OF USE” (CULLGEN (SHANGHAI), INC., priority 2021, published 2024).

Legend:
Assay type in all cases: cell-based
KM12 cells = assay: KM12 cell viability assay (CellTiter-Glo); details: for IC50: Homo sapiens, 72 h, KM12 cells, 3 days, CellTiter-Glo
Experimental: The kinase activity of TRK is known to play important roles in tumors expressing TRK-fusion proteins, as TRK kinase inhibitors compromise cell proliferation, survival, and induce marked clinical responses (Amatu et al., 2016; Drilon et al., 2018; Drilon et al., 2017; Khotskaya et al., 2017). KM12 cells seeded in 96-well plates were treated with heterobifunctional compounds following a 11-point 3-fold serial dilution. Three days after treatment, cell viability was determined using the CellTiter-Glo kit, and normalized to the mean values of 3 replicates of untreated cells. Dose-dependent response was analyzed following the least-squares non-linear regression method using the GraphPad Prism software. Each data point in the figure represents the mean values of three technical replicates ±standard deviation.
KM12 cells seeded in 96-well plates were treated with heterobifunctional compounds following a 11-point 3-fold serial dilution for 3 days.
(§1) KM12, TRKA G595R mutated KM12, HEL, and other cells were cultured at 37° C. with 5% CO2 in DMEM or RPMI 1640 Medium supplemented with 10% fetal bovine serum. Cells were authenticated using the short tandem repeat (STR) assays. Mycoplasma test results were negative.
(§2) Cells were seeded at a density of 5000 cells per well in 96-well assay plates and treated with test compounds following a 11-point 3-fold serial dilution. Three days later, cell viability was determined using the CellTiter-Glo assay kit (Promega) according to the manufacturer's instructions. The dose-response curves were determined and IC50 values were calculated using the GraphPad Prism software following a nonlinear regression (least squares fit) method.

[1] = system: TRKA G595R mutated KM12 cells; assay: Cell viability assay in TRKA G595R mutated KM12 cells (CellTiter-Glo); details: Homo sapiens, 72 h, 3 days
Experimental: as §1, §2
The activities of selected compounds on cell viability (IC50 values) and TMP3-TRKA degradation (percentage degradation at 10 nM) in KM12 cells or KM12-G595R mutated KM12 cells (KM12-G595R) are listed in Table 2.

TPM3-TRKA fusion protein = target: T1, TPM3-TRKA fusion protein (Homo sapiens, UniProt P04629); assay: TPM3-TRKA degradation in KM12 cells (Western blot); details: 16 hours, TRK protein, immunoblot; for inhibition at 0.01 µM: 10 nM; for inhibition at 0.1 µM: 100 nM
T1 construct: TPM3 (N-terminal part of tropomyosin alpha-3, natural fusion partner); endogenous in cells; host or cells: KM12 colon cancer cells; the other entry of the earlier key: TPM3 (P06753, Tropomyosin alpha-3 chain)
Experimental: Specific exemplary heterobifunctional compounds were characterized in KM12 cells. KM12 cells that express TPM3-TRKA fusion protein were treated with 10 nM or 100 nM heterobifunctional compounds disclosed herein or their corresponding warheads/inhibitors for 16 hours. Cells were collected, lysed and subject to immunoblotting using an antibody specific to TRK proteins.
KM12 cells were treated with heterobifunctional compounds at 10 nM or 100 nM for 16 hours.
Cultured cells were washed with cold PBS once and lysed in cold RIPA buffer supplemented with protease inhibitors and phosphatase inhibitors (Beyotime Biotechnology). The solutions were then incubated at 4° C. for 30 minutes with gentle agitation to fully lyse cells. Cell lysates were centrifuged at 13,000 rpm for 10 minutes at 4° C. and pellets were discarded. Total protein concentrations in the lysates were determined by BCA assays (Beyotime Biotechnology). Cell lysates were mixed with Laemmli loading buffer to 1× and heated at 99° C. for 5 min. Proteins were resolved on SDS-PAGE and visualized by chemiluminescence. Images were taken by a ChemiDoc MP Imaging system (Bio-Rad). Protein bands were quantitated using the software provided by Bio-Rad.
The percentage of TRK protein degradation of each compound at 10 nM and 100 nM was determined in KM12 cells as described in Methods. The percentage of degradation of each compound was indicated in the following categories: N/A: data not available; −: no degradation; +: degradation less than 50%; ++: degradation equal or greater than 50% but less than […]; +++: degradation equal or greater than 80%.

T1 sequence (P04629 with tags, fused parts or gaps): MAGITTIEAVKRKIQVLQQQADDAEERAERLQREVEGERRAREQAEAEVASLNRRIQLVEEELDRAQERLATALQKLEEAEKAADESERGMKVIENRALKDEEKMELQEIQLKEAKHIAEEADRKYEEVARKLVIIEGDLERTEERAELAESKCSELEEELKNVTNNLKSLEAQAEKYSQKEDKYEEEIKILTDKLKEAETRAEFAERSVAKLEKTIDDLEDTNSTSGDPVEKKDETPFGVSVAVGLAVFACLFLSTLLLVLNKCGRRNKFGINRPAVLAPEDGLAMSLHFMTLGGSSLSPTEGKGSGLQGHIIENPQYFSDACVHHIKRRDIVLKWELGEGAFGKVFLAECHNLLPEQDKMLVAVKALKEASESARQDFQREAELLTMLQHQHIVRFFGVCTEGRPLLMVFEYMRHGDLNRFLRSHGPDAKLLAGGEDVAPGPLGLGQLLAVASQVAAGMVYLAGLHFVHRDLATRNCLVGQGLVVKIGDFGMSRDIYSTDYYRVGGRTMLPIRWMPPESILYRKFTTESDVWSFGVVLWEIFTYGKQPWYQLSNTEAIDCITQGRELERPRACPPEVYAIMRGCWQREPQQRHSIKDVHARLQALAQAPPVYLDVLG

Row | inhibition at 0.01 µM (TPM3-TRKA fusion protein) | inhibition at 0.1 µM (TPM3-TRKA fusion protein) | SMILES | IC50 (KM12 cells) | IC50 [1] | viability of KM12 cells (KM12 cells; 11-point 3-fold serial dilution, 3 days (FIG. 3))
1 | < 50% | 50 to 800% | COCCN1C[C@@H](NC(=O)Nc2c(C)c(-c3cnc(N4CCN(C(=O)CCc5cccc6c5C(=O)N(C5CCC(=O)NC5=O)C6=O)CC4)nc3)nn2-c2ccccc2)[C@H](c2cccc(F)c2)C1 (stereo partly drawn) [CPD-025, 1-(3-(2-(4-(3-(2-(2,6-dioxopiperidin-3-yl)-1,3-dioxoisoindolin-4-yl)propanoyl)piperazin-1-yl)pyrimidin-5-yl)-4-methyl-1-phenyl-1H-pyrazol-5-yl)-3-((3S,4R)-4-(3-fluorophenyl)-1-(2-methoxyethyl)pyrrolidin-3-yl)urea] | 30 nM | 158 nM | 
2 | > 80% | > 80% | COCCN1C[C@@H](NC(=O)Nc2c(C)c(-c3cnc(N4CCN(C(=O)CCc5ccc6c(c5)C(=O)N(C5CCC(=O)NC5=O)C6=O)CC4)nc3)nn2-c2ccccc2)[C@H](c2cccc(F)c2)C1 (stereo partly drawn) [CPD-026, 1-(3-(2-(4-(3-(2-(2,6-dioxopiperidin-3-yl)-1,3-dioxoisoindolin-5-yl)propanoyl)piperazin-1-yl)pyrimidin-5-yl)-4-methyl-1-phenyl-1H-pyrazol-5-yl)-3-((3S,4R)-4-(3-fluorophenyl)-1-(2-methoxyethyl)pyrrolidin-3-yl)urea] | 42.1 nM | 301 nM | 
3 | > 80% | > 80% | COCCN1C[C@@H](NC(=O)Nc2c(C)c(-c3cnc(N4CCN(CCCc5ccc6c(c5)C(=O)N(C5CCC(=O)NC5=O)C6=O)CC4)nc3)nn2-c2ccccc2)[C@H](c2cccc(F)c2)C1 (stereo partly drawn) [CPD-032, 1-(3-(2-(4-(3-(2-(2,6-dioxopiperidin-3-yl)-1,3-dioxoisoindolin-5-yl)propyl)piperazin-1-yl)pyrimidin-5-yl)-4-methyl-1-phenyl-1H-pyrazol-5-yl)-3-((3S,4R)-4-(3-fluorophenyl)-1-(2-methoxyethyl)pyrrolidin-3-yl)urea] | 13.7 nM | 18.2 nM | 
4 | < 50% | 50 to 800% | COCCN1C[C@@H](NC(=O)Nc2c(C)c(-c3cnc(N4CCN(CCCc5cccc6c5C(=O)N(C5CCC(=O)NC5=O)C6=O)CC4)nc3)nn2-c2ccccc2)[C@H](c2cccc(F)c2)C1 (stereo partly drawn) [CPD-029, 1-(3-(2-(4-(3-(2-(2,6-dioxopiperidin-3-yl)-1,3-dioxoisoindolin-4-yl)propyl)piperazin-1-yl)pyrimidin-5-yl)-4-methyl-1-phenyl-1H-pyrazol-5-yl)-3-((3S,4R)-4-(3-fluorophenyl)-1-(2-methoxyethyl)pyrrolidin-3-yl)urea] | 13.4 nM | 277 nM | 
5 | 50 to 800% | 50 to 800% | COCCN1C[C@@H](NC(=O)Nc2c(C)c(-c3cnc(N4CCN(CCOc5cccc6c5C(=O)N(C5CCC(=O)NC5=O)C6=O)CC4)nc3)nn2-c2ccccc2)[C@H](c2cccc(F)c2)C1 (stereo partly drawn) [CPD-027, 1-(3-(2-(4-(2-((2-(2,6-dioxopiperidin-3-yl)-1,3-dioxoisoindolin-4-yl)oxy)ethyl)piperazin-1-yl)pyrimidin-5-yl)-4-methyl-1-phenyl-1H-pyrazol-5-yl)-3-((3S,4R)-4-(3-fluorophenyl)-1-(2-methoxyethyl)pyrrolidin-3-yl)urea] | 3.13 nM | 4.47 nM | 
6 | > 80% | 50 to 800% | COCCN1C[C@@H](NC(=O)Nc2c(C)c(-c3cnc(N4CCN(CCOc5ccc6c(c5)C(=O)N(C5CCC(=O)NC5=O)C6=O)CC4)nc3)nn2-c2ccccc2)[C@H](c2cccc(F)c2)C1 (stereo partly drawn) [CPD-028, 1-(3-(2-(4-(2-((2-(2,6-dioxopiperidin-3-yl)-1,3-dioxoisoindolin-5-yl)oxy)ethyl)piperazin-1-yl)pyrimidin-5-yl)-4-methyl-1-phenyl-1H-pyrazol-5-yl)-3-((3S,4R)-4-(3-fluorophenyl)-1-(2-methoxyethyl)pyrrolidin-3-yl)urea] | 4.1 nM | 30.4 nM | 
7 | < 50% | 50 to 800% | COCCN1C[C@@H](NC(=O)Nc2c(C)c(-c3cnc(N4CCN(C(=O)COc5cccc6c5C(=O)N(C5CCC(=O)NC5=O)C6=O)CC4)nc3)nn2-c2ccccc2)[C@H](c2cccc(F)c2)C1 (stereo partly drawn) [CPD-024, 1-(3-(2-(4-(2-((2-(2,6-dioxopiperidin-3-yl)-1,3-dioxoisoindolin-4-yl)oxy)acetyl)piperazin-1-yl)pyrimidin-5-yl)-4-methyl-1-phenyl-1H-pyrazol-5-yl)-3-((3S,4R)-4-(3-fluorophenyl)-1-(2-methoxyethyl)pyrrolidin-3-yl)urea] | 86.9 nM | 314 nM | 
8 | > 80% | > 80% | COCCN1C[C@@H](NC(=O)Nc2c(C)c(-c3cnc(N4CCN(C(=O)COc5ccc6c(c5)C(=O)N(C5CCC(=O)NC5=O)C6=O)CC4)nc3)nn2-c2ccccc2)[C@H](c2cccc(F)c2)C1 (stereo partly drawn) [CPD-023, 1-(3-(2-(4-(2-((2-(2,6-dioxopiperidin-3-yl)-1,3-dioxoisoindolin-5-yl)oxy)acetyl)piperazin-1-yl)pyrimidin-5-yl)-4-methyl-1-phenyl-1H-pyrazol-5-yl)-3-((3S,4R)-4-(3-fluorophenyl)-1-(2-methoxyethyl)pyrrolidin-3-yl)urea] | 6.46 nM | 44 nM | 
9 | 50 to 800% | 50 to 800% | COCCN1C[C@@H](NC(=O)Nc2c(C)c(-c3cnc(N4CCN(CCc5ccc6c(c5)C(=O)N(C5CCC(=O)NC5=O)C6=O)CC4)nc3)nn2-c2ccccc2)[C@H](c2cccc(F)c2)C1 (stereo partly drawn) [CPD-033, 1-(3-(2-(4-(2-(2-(2,6-dioxopiperidin-3-yl)-1,3-dioxoisoindolin-5-yl)ethyl)piperazin-1-yl)pyrimidin-5-yl)-4-methyl-1-phenyl-1H-pyrazol-5-yl)-3-((3S,4R)-4-(3-fluorophenyl)-1-(2-methoxyethyl)pyrrolidin-3-yl)urea] | 14.4 nM | 94.6 nM | 
10 | 50 to 800% | 50 to 800% | COCCN1C[C@@H](NC(=O)Nc2c(C)c(-c3cnc(N4CCN(CCNc5cccc6c5C(=O)N(C5CCC(=O)NC5=O)C6=O)CC4)nc3)nn2-c2ccccc2)[C@H](c2cccc(F)c2)C1 (stereo partly drawn) [CPD-030, 1-(3-(2-(4-(2-((2-(2,6-dioxopiperidin-3-yl)-1,3-dioxoisoindolin-4-yl)amino)ethyl)piperazin-1-yl)pyrimidin-5-yl)-4-methyl-1-phenyl-1H-pyrazol-5-yl)-3-((3S,4R)-4-(3-fluorophenyl)-1-(2-methoxyethyl)pyrrolidin-3-yl)urea] | 1.09 nM | 5.13 nM | 
11 | > 80% | > 80% | COCCN1C[C@@H](NC(=O)Nc2c(C)c(-c3cnc(N4CCN(C(=O)CNc5ccc6c(c5)C(=O)N(C5CCC(=O)NC5=O)C6=O)CC4)nc3)nn2-c2ccccc2)[C@H](c2cccc(F)c2)C1 (stereo partly drawn) [CPD-019, 1-(3-(2-(4-((2-(2,6-dioxopiperidin-3-yl)-1,3-dioxoisoindolin-5-yl)glycyl)piperazin-1-yl)pyrimidin-5-yl)-4-methyl-1-phenyl-1H-pyrazol-5-yl)-3-((3S,4R)-4-(3-fluorophenyl)-1-(2-methoxyethyl)pyrrolidin-3-yl)urea] | 9.2 nM |  | inhibited the viability
